These results are taken from patent publication US20050186135A1, “Compositions, methods, apparatuses, and systems for singlet oxygen delivery” (priority 2001, published 2005).

In one data set the test system is atherosclerosis. The conditions noted are these: in vivo; cited from earlier work.
For data set [1] the following is noted: Ameta et al. 1990; Parker and Stanbro 1984; cited from earlier work.
The test system of the next data set is mitosis. The conditions noted are these: Lamprecht et al. 1990; cited from earlier work.
A further data set relates to tumor growth. Conditions: mice, Altermatt et al. 1990; cited from earlier work.
The conditions of data set [2]: in vivo; cited from earlier work.
For the next data set, the system named is influenzal pneumonia. Conditions: intravenous hydrogen peroxide solution, Oliver 1920; cited from earlier work.
The conditions of data set [3]: stated as believed; cited from earlier work.
The subject of a further data set is a single cell. Conditions: Oseroff et al. 1986; cited from earlier work.
In the next data set the test system is skin keratosis lesion. The experiment in a line: Treatment of Keratosis I: intralesional injection. The conditions noted are these: 0.4 ml of 6% sodium hypochlorite alone into center of ~1.25 cm lesion. In kind it is in vivo, human. On the procedure: A skin keratosis lesion measuring approximately 1.25 cm in diameter was chosen as a target for treatment. The lesion was located on the left temple of a person.
Using a 30-gauge hypodermic needle, 0.4 ml of a 6% solution of sodium hypochlorite was injected into the center of the lesion. […] See FIG. 20 for a photo of the area immediately following the injection.
Immediately after the first injection, using a 30-gauge hypodermic needle, 0.4 ml of a 3% solution of hydrogen peroxide was injected into the center of the lesion. […] See FIG. 21 for a photo of the area immediately following the injection.

Data set [4] relates to coronary artery blocked with sclerotic plaque. The data set can be described thus: Treatment of Sclerotic Plaque I: cadaver artery section in test tube. Details: species or system human. Conditions: 2 ml of 6% sodium hypochlorite, shaken one minute.
Text: A coronary artery blocked with sclerotic plaque, taken from a human cadaver, was chosen as a target site for treatment. The coronary artery was grayish pink in color and suspended in a formaldehyde preservative. It was surrounded with fatty tissue of an irregular shape, which measured approximately 1 cm in its widest dimension. It measured 0.6 cm in length and 0.5 cm diameter. The lumen of the vessel was completed occluded with sclerotic plaque.
The cross section of coronary artery was placed in a test tube containing 2 ml of 6% of sodium hypochlorite and was shaken for one minute. […] This preparation was then again shaken.
For data set [5] the test system is unchanged. The experiment in a line: Treatment of Sclerotic Plaque II: hypochlorite alone, then peroxide added. Conditions: 2 ml of 6% sodium hypochlorite alone. Details: species or system human. On the procedure:
The following tests were performed to corroborate that the singlet oxygen produced by the hydrogen peroxide and the sodium hypochlorite had actually cleared and opened the human coronary artery blocked with the sclerotic plaque.
Like Example 3, a coronary artery blocked with sclerotic plaque, taken from a human cadaver, was prepared as a target site for treatment. The coronary artery was grayish pink in color and suspended in a formaldehyde preservative. It was surrounded with fatty tissue of an irregular shape, which measured 1.1 cm in its widest dimension. It measured approximately 0.6 cm in length and 0.5 cm in diameter. The lumen of the vessel was completed occluded with sclerotic plaque.
The human coronary artery with the plaque was first treated with 2 ml of 6% solution of sodium hypochlorite alone.
Immediately after the treatment with the sodium hypochlorite, 2 ml of 3% solution of hydrogen peroxide was added to the 2 ml of 6% solution of sodium hypochlorite containing the human coronary artery with the plaque.

For data set [6] the following is noted: gives peroxyl and/or alkoxyl radicals; Noguchi et al. 2002; cited from earlier work.

`CC(=O)[O-].CC(=O)[O-].CCc1c(CC)c2cc3nc(cnc4cc(OCCOCCOCCOC)c(OCCOCCOCCOC)cc4ncc4nc(cc1[n-]2)C(CCCO)=C4C)C(C)=C3CCCO.O.[Lu+3]` [Antrin, motexafin lutetium]: the “feasibility and tolerability of photoangioplasty” value in the data set on atherosclerosis was “feasible and well tolerated”.
Take `[2H]O[2H]` [D2O, deuterium oxide]: in [1], the “effect on lifetime of singlet oxygen” value is reported as “can increase the lifetime of singlet oxygen”. For the same compound, the effect on mitosis entry in the data set on mitosis was “anti-mitotic effect optimized between anaphase and metaphase”. Further, the “effect on rate of tumor growth” value with tumor growth is “can depress the rate of tumor growth in mice”. In addition, in data set [2], the safety in infants entry is listed as “safe” and the toxicity in mammals entry is “low toxicity”.
Consider `OO` [hydrogen peroxide], for which, in the data set on influenzal pneumonia, the treatment success result is listed as “high rate of success”.
Regarding `O=O` [singlet oxygen], the “lifetime of singlet oxygen” value in data set [3] is listed as “about 50 nanoseconds”. The “molecules of singlet oxygen necessary to kill a single cell” value in the data set with a single cell is reported as 10^10 molecules.
As for `OCl` [sodium hypochlorite], in the data set on skin keratosis lesion, the “bleeding at injection site” value was “minor bleeding at the lower border of the injection site”. In addition, the sensation on injection result in the data set with skin keratosis lesion (30-gauge needle) is “mild burning sensation”. For the same compound, the “solubilization by hypochlorite alone” value in [4] is on record as “minimal solubilization of the surrounding fatty tissue of the vessel”. Moreover, the “change of plaque with hypochlorite alone” value in [5] was “no significant changes occurred to the plaque”.
In the case of `CC(C)(C)OO` [tert-butyl hydroperoxide], in data set [6], the “formation of singlet oxygen on reaction with hypochlorite” value is “little formation of singlet oxygen”.
